We go through two substances from patent publication US7118747B2, “AT4 receptor ligands as angiogenic, anti-angiogenic, and anti-tumor agents” (Pacific Northwest Biotechnology Inc., priority 2003, dated 2006).

Experiment [1] relates to Human umbilical vein endothelial cells (HUVEC). Nature of the experiment: HUVEC growth, MTT assay. The class given is cell-based. The method, then:
These initial observations were extended to human endothelial cells (FIG. 1A) where application of the high affinity agonist, Nle^1-Ang IV (Sardinia et al., 1994; Wright et al., 1999), produces a dose-dependent increase in growth. Human umbilical vein endothelial cells (HUVEC) were grown in EGM (Clonetics) and 10% calf serum for four days in the absence (control) or presence of 10^−8 M, 10^−10 M, or 10^−12 M Nle^1-Ang IV. Cell proliferation was estimated by monitoring mitochondrial activity with the redox-sensitive substrate 3-[4,5-Dimethylthiazol-2-yl]-2,5-diphenyltetrazolium bromide (MTT) (Carmicheal et al., 1987).
(§1) Most relevant for anti-angiogenic cancer treatment is the ability of AT4 antagonists to inhibit endothelial cell growth in culture. Attenuated growth has been observed with both CVECs and with HUVECs (FIG. 1B). After four days of treatment with 10^−10 M Nle^1, Leu^3-Ψ(CH2—NH2)^3-4-Ang IV (NORLEUAL), a potent AT4 receptor antagonist (Kramar et al., 2001), growth of CVECs was reduced to 25% of control (Mean±SEM; n=8; p<.001). […] Cell proliferation was again estimated using the MTT assay.

For experiment [2], the system named is bovine coronary venular endothelial cells (CVEC). To be noted: cultured CVEC (Hall et al., 1995); cited from earlier work.
For experiment [3], the system named is angiogenesis into subcutaneously implanted disc. As to the kind of experiment: In vivo disc angiogenesis assay. To be noted: rat, 10 micrograms of drug per disc, 10 days after implantation. How it is done:
(§2) This prediction has been borne out in studies examining the anti-angiogenic activity of the AT4 receptor antagonist, NORLEUAL, using an ex vivo aortic ring model (FIG. 5) and an in vivo disc angiogenesis assay system in rats (FIG. 6). The data shown in FIG. 5 illustrate the dramatic ability of an AT4 receptor antagonist to inhibit neovascular growth. Rat aortic rings were incubated for 24 hours in a growth factor rich medium (EGM-2) followed by 3 days of incubation in a basal medium (control) or basal media with varying concentrations of NORLEUAL. The data shown in FIG. 5A compare an untreated control ring and a ring treated with 10^−6 M NORLEUAL. […] Disks (1 cm diameter) composed of surgical sponge sandwiched between impermeable membranes were implanted subcutaneously in the backs of rats. In the center of the disks was a pellet containing the test material. The disks were removed 10 days after implantation, paraffin sectioned, stained with Coomassie blue, and analyzed by quantitative image analysis methods to determine the vascularized area. […] Data from discs containing no drug (control), an AT4 receptor agonist (Cpnd 1), or an AT4 receptor antagonist (Cpnds 2-4). Cmpd 2 is NORLEUAL. Each disc contained 10 micrograms of drug. Data is presented as the percent of the total disc area that is vascularized (Mean±SEM; n=8).

The subject of experiment [4] is MDA-MB-231 human breast cancer cells. As to the kind of experiment: MDA-MB-231 growth, MTT assay. The class given is cell-based. To be noted: 10^-12 M, four days in culture. From the text:
Because of the marked effectiveness of AT4 receptor antagonists to inhibit the growth and metastasis of breast cancer in vivo, and the generally disappointing activity of anti-angiogenic molecules seen in clinical trials (Kerbel and Folkman, 2002), we decided to ascertain whether these drugs might have a direct effect on tumor cells as well as inhibiting angiogenesis. The growth of MDA-MB-23 1 cells, an aggressive estrogen-independent human cell line was inhibited by all concentrations that were examined (FIG. 10). Growth was assessed using the mitochondrial activity dye MTT after four days in culture. Growth was reduced to less than 25% of control by a concentration of NORLEUAL of 10^−12 M (Mean+/−SEM; n=6). […] The unusual reversed dose-response curve seen with the MDA-MB-231 cells may represent differential effects on multiple receptor subtypes with varied ligand affinities. […] The ability of AT4 receptor antagonists to inhibit both the angiogenic process as well as the proliferation of human cancer cells makes them unique among anti-cancer agents and provides a plausible explanation for their dramatic ability to inhibit tumor growth and metastasis.
A general note: Formazan colour is commonly taken as a measure of viable cells.

Experiment [5] relates to Human dermal fibroblasts. As to the kind of experiment: Net deposition of extracellular matrix protein, anti-fibronectin stain. In kind it is cell-based. To be noted: 10^-12 M, 3 days. How it is done: (§3) Human dermal fibroblasts and C6 glioma cells (astrocyte tumor) were treated with 10^−12 M NORLEUAL for 3 days. Cells were stripped with 0.25 % Triton X-100 for 10 minutes and stained with either Coomassie blue (gliomas) or anti-fibronectin (fibroblasts). Stained dots remaining after treatment are nuclei. Although the mechanism responsible for the lose of ECM proteins has yet to be fully elucidated, a contributing factor could be AT4 receptor-dependent alterations in the expression of matrix metalloproteinases. Application of AT4 receptor ligands to rabbit cardiac fibroblasts initiated marked changes in the expression of various matrix metalloproteinases (MMPs) (FIG. 3). Conditioned media from cardiac fibroblasts treated with various AT4 receptor ligands for 12 hours was loaded and run on a 10% SDS-polyacrylamide gel containing the 1% gelatin, an MMP substrate. After renaturation and activation of MMPs, the gel was incubated at 37° C. for 24 hours to allow for the degradation of gelatin at sites within the gel where MMPs reside. These sites are seen as unstained lytic bands on a background of stained and undegraded gelatin. Lane one is control media from cells with no exposure to AT4 receptor ligands. Lanes 2-4 contained media from cells treated with Nle^1-Ang IV, a putative AT4 receptor agonist, at concentrations of 1 nM, 10 nM, and 100 nM respectively. […]

Experiment [6] has as its system C6 glioma cells. Nature of the experiment: Net deposition of extracellular matrix protein, Coomassie blue stain. In kind it is cell-based. To be noted: 10^-12 M, 3 days. How it is done:
as §3

For experiment [7], the system named is bovine coronary venular endothelial cells (CVEC). Nature of the experiment: CVEC growth, MTT assay. The class given is cell-based. To be noted: 10^-10 M, four days of treatment.
Excerpt: as §1

The subject of experiment [8] is +SA-WAZ-2T mouse breast cancer cells. Nature of the experiment: Primary mammary tumor growth and vascularization with slow-release pellet. The class given is in vivo. To be noted: mice. How it is done:
To test this prediction mice were implanted with […]+SA-WAZ-2T mouse breast cancer cells (a highly aggressive and metastatic cell line) (Danielson et al., 1980) directly into the mammary gland in the presence or absence of a slow-release pellet containing the AT4 antagonist, NORLEUAL at various concentrations (FIG. 7; FIG. 14[color version]). Mouse mammary glands were injected with 5×10^5 cells. […] Tumors were removed and weighed at various time points. Data shown represents one of three experiments that yielded identical results. […] Arrows indicate large blood vessels in the control tumor. […] The highest dose examined inhibited growth more than 97%. Equally dramatic as the reduced size of the tumors was their lack of vascularization. […] Tumors were harvested after 5 weeks of drug application and stained for Factor VIII. […] The quantitative data shown in FIG. 8B indicates the number of visible blood vessels in an average high power field. Data are mean+/−SEM, n=6.

Experiment [9] deals with murine breast cancer cells. As to the kind of experiment: Lung metastasis after tail vein injection of breast cancer cells. In kind it is in vivo, mice. To be noted: Elvax pellets with 0.3 mg bilaterally. From the text: In addition to inhibiting primary tumor growth, AT4 receptor antagonists are also effective at preventing the growth of lung metastases (as assessed by total lung weight and the presence of metastatic tumor nodules) in mice that have had breast cancer cells injected via the tail vein (FIG. 9). In these experiments the drug was applied using Elvax slow-release pellets that were implanted into the gluteus maximus muscle coincident with the injection of tumor cells into the tail vein. Mice were injected with 5×10^5 murine breast cancer cells and bilaterally implanted with Elvax pellets containing 0.3 mg of NORLEUAL. Lungs were harvested 7 weeks after tumor cell injection and weighed. […] In order to compare just the added lung weight due to tumor infiltration, tumor burden was calculated by subtracting the mean lung weight of wild type untreated controls from the weight of lungs from experimental groups. The mean lung weight of the untreated tumor controls was normalized to 100. Typically, the lung weights of cancer injected, non-treated mice were 50% greater than non-injected controls and treated mice. Spleen weight, another indication of tumor burden, was also normal in treated mice.

In experiment [10] the test system is Rat aortic rings. As to the kind of experiment: Ex vivo rat aortic ring angiogenesis assay. To be noted: 3 days in basal medium with varying concentrations; p<0.02 for 10^-6 M. How it is done: as §2
The test system of experiment [11] is HUVECs. As to the kind of experiment: Net deposition of extracellular matrix protein, Coomassie blue stain. In kind it is cell-based, human. To be noted: 10^-12 M, 3 days. An excerpt:
HUVECs and the mouse breast cancer cell line, +SA-WAZ-2T was exposed to the AT4 receptor antagonist NORLEUAL at 10^−12 M for 3 days. Cells were then stripped with 0.25% Triton X-100 and stained with Coomassie blue to visualize total ECM protein. Without an ECM platform endothelial cells fail to migrate and are unable to stabilize new blood vessels.

In the case of Nle^1-Ang IV, in experiment [1] (HUVEC, four days, 10^-8, 10^-10 or 10^-12 M), the “maximum observed increase in endothelial cell proliferation” value is recorded as 330 % of control levels. Further, the “rate of 3H-thymidine incorporation” value in experiment [2] is listed as “augment the rate of ^3H-thymidine incorporation”. In experiment [3], the “angiogenesis, percent of total disc area vascularized” value is “trend toward enhancing angiogenesis”.
As to “Nle^1, Leu^3-Ψ(CH2—NH2)^3-4-Ang IV [NORLEUAL]”, in [4], the “growth of MDA-MB-231 cells” value is “less than 25 % of control”. The “deposited ECM” value in experiment [5] and in experiment [6] was “near total loss of deposited ECM” each time. Further, the “growth of HUVECs, largest decrease” value in experiment [1] (10^-6 M) stood at 39 % control. Further, the “growth of CVECs” value in experiment [7] is given as 25 % of control. Also, in experiment [8] (highest dose examined, Elvax pellet in mammary gland), the “inhibition of primary tumor growth” value is “more than 97%”. For the same substance, the “tumor vascularization, Factor VIII stained sections” value in experiment [8] (tumors harvested after 5 weeks of drug application) is reported as “nearly avascular”. Further, the lung metastases entry in experiment [9] (mice, lungs harvested at 7 weeks) is reported as “no gross or microscopic indication of metastases”. Further, the “spleen weight, indication of tumor burden” value in experiment [9] (treated mice) was “normal”. Moreover, the “vessel growth in aortic rings” value in experiment [10] is “inhibition of vessel growth”. In addition, the “density of endothelial-associated ECM” value in experiment [11] is recorded as “dramatic reduction in the density of the endothelial-associated ECM”.
